Results from patent publication US4895856A, “Derivatives of 5-pentylamino-5-oxopentanoic and 4-pentylamino-4-oxobutanoic acids with antagonistic activity towards cholecystokinin” (Rotta Research Laboratorium S.p.A., priority 1986, dated 1990).
Read-outs that look alike come from different tables or passages of the source.

How the values were obtained:
[1] = Antispastic activity on the gallbladder in mice (egg yolk-induced emptying); type: in vivo; conditions: mouse, in vivo, ip, 75 mg/kg, read-out: death of the animals treated
Protocol: (§1) Emptying of the gall bladder was induced by a single oral administration of 1 ml of a 30% suspension (weight/volume) of lyophylised egg yolk in a physiological solution.
(§2) As stated above once it has been absorbed egg yoke induces a release of endogenous CCK.
(§3) The antagonistic compounds were administered intraperitoneally (i.p.) 15 minutes before the contractant.
(§4) The % antispastic activity for each dose was calculated from the following formula: [formula] where P1 =the average weight of the gallbladders of the group of animals treated with the drug plus the contractant.
(§5) P2 =the average weight of the gallbladders of the group of animals treated with the contractant only.
(§6) P3 --the average weight of the gallbladders of the control group of animals.
(§7) The results obtained are given in Table 5 where the effects obtained are expressed as the ID50.

gallbladder = assay: as above; type: in vivo; conditions: for % inhibition of the emptying of the gallbladder: egg yolk; for ED50: Mus musculus, ip, read-out: ID50 (antispastic activity on contraction of the gallbladder induced by egg yolk)
Protocol: as §1, §2, §3, §4, §5, §6, §7

pyloric sphincter = assay: Antispastic activity on pyloric contraction induced by CCK in rats; type: in vivo; conditions: for % inhibition of the pyloric contraction: CCK 8 mcg/kg i.p.; for ED50: Rattus norvegicus, ip, i.p. 15 minutes before CCK 8 mcg/kg i.p., read-out: ID50 (antispastic activity on the pyloric contraction induced by CCK)
Protocol: A dose of 8 mcg/kg i.p. of CCK was used, which induced a sub-maximal contraction of the pylorus. The antagonistic compounds were administered (i.p.) 15 minutes before the contractant. 10 minutes after administration of the contractant, the animals were treated per os with 25 ml/kg of H2 O. 5 minutes after the administration the animals were killed, their stomachs removed and the gastric content measured by removal with a syringe.
The % antispastic activity for each dose administered was calculated from the following formula: [formula] where V1 =the volume of gastric content of the group of animals treated with the drug plus the contractant.
V2 =the volume of gastric content of the group of animals treated with the contractant only.
V3 =the volume of gastric content of the control group of animals.
Various doses of the compounds were tested so as to enable the calculation of an ID50 value, that is the dose (in mg/kg i.p.) which is able to inhibit the contractant effect of CCK by 50%.
The results obtained are given in Table 6 where the effects obtained are expressed as the ID50.

pancreas = assay: Protective activity in experimental pancreatitis induced by sodium taurocholate in rats; type: in vivo; conditions: for ED50: Rattus norvegicus, ip, taurocholate pancreatitis
Protocol: The method described by Aho et al. (Scandinavian J. Gastroenterology 15 (1980), 411-16) was followed.
Male rats weighing approximately 250 g were subjected to laparotomy and the pancreas exposed. 0.3 ml of a 6% solution of sodium taurocholate were injected directly into the pancreatic tissue.
The products under examination were administered intraperitoneally (i.p.) 30 minutes before the operation and 3 hours after the operation.
6 hours after the laparotomy, blood was taken from the retro-orbital plexus after anaesthesia with ether, the animals were killed and the pancreas was removed and weighed. The activity of the serum amylase was determined by the Ceska method (Clin. Chim. Acta 26 (1969), 437-444).
The compounds were tested at various doses so as to enable the calculation of an ID50 value, that is the dose (in mg/kg i.p.) which is able to inhibit the toxic effect of the sodium taurocholate by 50%, expressed both as a % inhibition of the increase in weight of the pancreas and as a % inhibition of the increase in serum amylase.

[2] = target: T1, cholecystokinin receptors of ox gallbladder membranes (Bos taurus, UniProt A6QLH2); assay: Inhibition of binding of (125-I)-Bolton Hunter-CCK-8 to ox gallbladder membranes; conditions: 2 h at 25° C., pH 7.4, read-out: IC50 (displacement of 50% of the (125-I)-CCK-8 from the receptors)
T1 sequence (A6QLH2 1-427): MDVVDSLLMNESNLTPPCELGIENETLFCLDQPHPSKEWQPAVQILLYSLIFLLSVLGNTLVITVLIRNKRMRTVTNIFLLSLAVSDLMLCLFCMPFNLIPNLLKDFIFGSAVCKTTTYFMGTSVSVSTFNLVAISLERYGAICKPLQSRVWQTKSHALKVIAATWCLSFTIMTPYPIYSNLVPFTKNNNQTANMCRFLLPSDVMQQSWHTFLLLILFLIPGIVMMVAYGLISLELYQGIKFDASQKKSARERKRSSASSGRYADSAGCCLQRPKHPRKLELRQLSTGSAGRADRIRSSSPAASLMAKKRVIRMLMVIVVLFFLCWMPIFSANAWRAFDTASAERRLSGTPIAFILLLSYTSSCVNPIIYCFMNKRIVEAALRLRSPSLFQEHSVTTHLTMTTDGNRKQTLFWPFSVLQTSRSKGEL
Protocol: The capacity of some compounds of the invention to inhibit the binding of (125-I)-Bolton Hunter-CCK-8 to the cholecystokinin receptors of ox gallbladder membranes was evaluated by comparison with the displacement induced by cold (unmarked) CCK.
The ox gallbladder cell membranes were prepared by homogenisation with Tris buffer (pH 7.4) and centrifuging of the homogenate at 50,000 gravity for 10 minutes. The membranes were then incubated together with the radioactive tracer and the compounds under study for 2 h at 25° C.
After the supernatant liquid had been discarded, the radioactivity associated with the pellet was determined with a liquid scintillator. The specific binding was determined as the difference between the binding in the absence and in the presence of 10^-6 M CCK-8.

[3] = i.p. 15 minutes before the contractant
[4] = read-out: ID50, inhibition of pancreas weight increase
[5] = read-out: ID50, inhibition of serum amylase increase

Row | Molecule | % inhibition of the emptying of the gallbladder (gallbladder; 0.1 mg/kg i.p.) | % inhibition of the emptying of the gallbladder (gallbladder; 0.3 mg/kg i.p.) | % inhibition of the emptying of the gallbladder (gallbladder; 1.0 mg/kg i.p.) | ED50 (gallbladder; [3]) | % inhibition of the pyloric contraction (pyloric sphincter; 0.03 mg/kg i.p.) | % inhibition of the pyloric contraction (pyloric sphincter; 0.1 mg/kg i.p.) | % inhibition of the pyloric contraction (pyloric sphincter; 0.3 mg/kg i.p.) | % inhibition of the pyloric contraction (pyloric sphincter; 1.0 mg/kg i.p.) | ED50 (pyloric sphincter) | % inhibition amylase increase (pancreas; 3 mg/kg i.p. + taurocholate) | % inhibition weight increase (pancreas) (pancreas; 3 mg/kg i.p. + taurocholate) | % ratio pancreas weight / animal weight (pancreas; 3 mg/kg i.p. + taurocholate) | amylase in the serum (pancreas; 3 mg/kg i.p. + taurocholate) | % inhibition amylase increase (pancreas; 10 mg/kg i.p. + taurocholate) | % inhibition weight increase (pancreas) (pancreas; 10 mg/kg i.p. + taurocholate) | % ratio pancreas weight / animal weight (pancreas; 10 mg/kg i.p. + taurocholate) | amylase in the serum (pancreas; 10 mg/kg i.p. + taurocholate) | ED50 (pancreas; [4]) | ED50 (pancreas; [5]) | other results
1 | COc1ccc(Cc2nccc3cc(OC)c(OC)cc23)cc1OC [PAPAVERINE, papaverine, reference compound] |  |  |  |  |  |  |  |  |  |  |  |  |  |  |  |  |  |  |  | mortality [1]: 20%; % inhibition of the emptying of the gallbladder (gallbladder; 25 mg/kg i.p.): 0%; % inhibition of the emptying of the gallbladder (gallbladder; 50 mg/kg i.p.): 0%; % inhibition of the emptying of the gallbladder (gallbladder; 75 mg/kg i.p.): 26.1%; ID50 (antispastic activity on contraction of the gallbladder induced by egg yolk) (gallbladder; [3]): INACTIVE; antispastic activity on the gallbladder (in words) (gallbladder; only at the toxic dose of 75 mg/kg): slightly active
2 | CCCCCN(CCCOC)C(=O)C(CCC(=O)O)NC(=O)c1ccc2ccccc2c1 (stereo not shown) [Compound 28] | 16.5% | 36.2% | 58.8% | 0.62 mg/kg | 12.5% | 29.2% | 46.7% | 73.0% | 0.3 mg/kg | 45.0% | 29.2% | 0.52% | 11.0 U/ml | 68.3% | 50.0% | 0.47% | 9.6 U/ml | 9.2 mg/kg | 4.1 mg/kg | % inhibition amylase increase (pancreas; 20 mg/kg i.p. + taurocholate): 88.3%; % inhibition weight increase (pancreas) (pancreas; 20 mg/kg i.p. + taurocholate): 66.6%; % ratio pancreas weight / animal weight (pancreas; 20 mg/kg i.p. + taurocholate): 0.43%; amylase in the serum (pancreas; 20 mg/kg i.p. + taurocholate): 8.4 U/ml
3 | CCCCCN(CCCCC)C(=O)C(CC(=O)O)NC(=O)c1ccc2ccccc2c1 (stereo not shown) [Compound 26] | 17.0% | 30.8% | 66.7% | 0.53 mg/kg | 24.8% | 50.0% | 57.7% | 78.9% | 0.14 mg/kg |  |  |  |  |  |  |  |  |  |  | 
4 | CCCCCN(CCCCC)C(=O)C(CCC(=O)O)NC(=O)c1ccc2ccccc2c1 (racemic) [Compound 19, D,L-4-(2-naphthoylamino)-5-(di-n-pentylamino)-5-oxopentanoicacid] | 41.2% | 83.7% |  | 0.11 mg/kg | 28.7% | 70.7% | 95.5% |  | 0.05 mg/kg | 76.7% | 73.3% | 0.43% | 10.0 U/ml | 90.7% | 93.3% | 0.40% | 8.8 U/ml | 1.7 mg/kg | 1.1 mg/kg | % inhibition of the emptying of the gallbladder (gallbladder; 0.03 mg/kg i.p.): 12.1%; contraction of the gallbladder induced by the egg yolk (in words) (gallbladder; 0.3 mg/kg): almost completely blocks the contraction; % inhibition of the pyloric contraction (pyloric sphincter; 0.01 mg/kg i.p.): 17.3%; % inhibition amylase increase (pancreas; 1 mg/kg i.p. + taurocholate): 45.3%; % inhibition weight increase (pancreas) (pancreas; 1 mg/kg i.p. + taurocholate): 33.3%; % ratio pancreas weight / animal weight (pancreas; 1 mg/kg i.p. + taurocholate): 0.49%; amylase in the serum (pancreas; 1 mg/kg i.p. + taurocholate): 12.7 U/ml; ED50 (pancreas; read-out: dose inhibiting the weight increase of the pancreas and the serum amylase increase by 50%): ~1.5 mg/kg
5 | CCK-8: cold (unmarked) CCK; cholecystokinin |  |  |  |  |  |  |  |  |  |  |  |  |  |  |  |  |  |  |  | IC50 [2]: 0.2 nM
